Entries after “also recorded” stand apart in the source; their conditions may differ.
Experiment: DPPH radical scavenging (antioxidant) assay
Conditions: for radical scavenging activity (in words): DPPH assay, up to 100 μg/mL, FIG. 8
Procedure: Antioxidant activity was analyzed using 2,2-Diphenyl-1-picryhydrazyl (DPPH) assay according to the reports (22). Briefly, 50 μl of sample solution in DMSO was added to 200 μl of 200 μM DPPH radical solution in a 96-well plate. L-ascorbic acid and α-Tocopherol were used as positive controls. After 30 min of incubation at 37° C., the absorbance at 515 nm was measured. DPPH free radical scavenging activities was calculated using the equation; radical scavenging activity (%)=[1−(Asample−Ablank)/(Acontrol−Ablank)]×100. DMSO was used as a control.

SMILES | radical scavenging activity (in words) | radical scavenging activity (highest concentration tested, 100 μg/mL, 30 min at 37° C., absorbance 515 nm)
CCCCCCCCc1ccc(CCCCCC(=O)O)o1 [7,10-EODA, 7,10-epoxy-octadeca-7,9-dienoic acid] | radical scavenging activity increasing in a dose-dependent manner; also recorded: increased dose-dependently | 23%
CCCCCCCC[C@H](O)/C=C/[C@@H](O)CCCCCC(=O)O [DOD, 7,10-dihydroxy-8(E)-octadecenoic acid, reference compound] | did not show any activity | 
